Experimental data reported in patent US20230054093A1, “TREATMENT” (priority 2019, published 2023).

Assays:
[1] = biological target: T1, Streptococcus pneumoniae NanA sialidase CBM (SpCBM, SEQ ID NO: 4) variant Im21 V246G (Streptococcus pneumoniae, UniProt P62575, V246G); assay: Surface plasmon resonance (SPR, Biacore) binding affinity to sialyllactose; design: key: Green: green indicates that the variant closely resembles its WT counterpart for that particular characteristic; Green’: pale green (green’) or yellow indicate increasing degrees of differences; Yellow: pale green (green’) or yellow indicate increasing degrees of differences; Orange: Red or orange indicate significant differences; Red or orange indicate significant differences; conditions: qualitative colour code vs WT
T1 construct: SpCBM, residues 121-305 of S. pneumoniae NanA sialidase; 6His (pHISTEV) (cleaved yes); made in house; host or cells: E. coli
Description: (§1) The 13 soluble proteins were expressed in E. coli and purified by immobilized metal affinity chromatography (IMAC), followed by TEV digestion to remove the 6His-tag, then reverse IMAC and size exclusion chromatography (SEC).
(§2) Ten purified domains (WTSp, Im19, Im20, Im21, Im22, Im23, WTTD, Im24, Im26 and Im27) were further characterized by:
(§3) (iv) Surface plasmon resonance (SPR) to measure binding affinity to sialyllactose

[2] = biological target: T2, Streptococcus pneumoniae NanA sialidase CBM (SpCBM, residues 121-305), wild type WTSp, SEQ ID NO: 4 (Streptococcus pneumoniae, UniProt P62575); assay: as above; design: key: Green: green indicates that the variant closely resembles its WT counterpart for that particular characteristic; Green’: pale green (green’) or yellow indicate increasing degrees of differences; Yellow: pale green (green’) or yellow indicate increasing degrees of differences; Orange: Red or orange indicate significant differences; Red or orange indicate significant differences; conditions: qualitative colour code vs WT
T2 construct: SpCBM, residues 121-305 of S. pneumoniae NanA sialidase; 6His (pHISTEV) (cleaved yes); made in house; host or cells: E. coli
Description: as §1, §2, §3

[3] = biological target: T3, Streptococcus pneumoniae NanA sialidase CBM (SpCBM, SEQ ID NO: 4) variant Im20 V239T (Streptococcus pneumoniae, UniProt P62575, V239T); assay: as above; design: key: Green: green indicates that the variant closely resembles its WT counterpart for that particular characteristic; Green’: pale green (green’) or yellow indicate increasing degrees of differences; Yellow: pale green (green’) or yellow indicate increasing degrees of differences; Orange: Red or orange indicate significant differences; Red or orange indicate significant differences; conditions: qualitative colour code vs WT
T3 construct: SpCBM, residues 121-305 of S. pneumoniae NanA sialidase; 6His (pHISTEV) (cleaved yes); made in house; host or cells: E. coli
Description: as §1, §2, §3

[4] = biological target: T4, Streptococcus pneumoniae NanA sialidase CBM (SpCBM, SEQ ID NO: 4) variant Im22 I286A (Streptococcus pneumoniae, UniProt P62575, I286A); assay: as above; design: key: Green: green indicates that the variant closely resembles its WT counterpart for that particular characteristic; Green’: pale green (green’) or yellow indicate increasing degrees of differences; Yellow: pale green (green’) or yellow indicate increasing degrees of differences; Orange: Red or orange indicate significant differences; Red or orange indicate significant differences; conditions: qualitative colour code vs WT
T4 construct: SpCBM, residues 121-305 of S. pneumoniae NanA sialidase; 6His (pHISTEV) (cleaved yes); made in house; host or cells: E. coli
Description: as §1, §2, §3

[5] = biological target: T5, Streptococcus pneumoniae NanA sialidase CBM (SpCBM, SEQ ID NO: 4) variant Im19 V239A (Streptococcus pneumoniae, UniProt P62575, V239A); assay: as above; design: key: Green: green indicates that the variant closely resembles its WT counterpart for that particular characteristic; Green’: pale green (green’) or yellow indicate increasing degrees of differences; Yellow: pale green (green’) or yellow indicate increasing degrees of differences; Orange: Red or orange indicate significant differences; Red or orange indicate significant differences; conditions: qualitative colour code vs WT
T5 construct: SpCBM, residues 121-305 of S. pneumoniae NanA sialidase; 6His (pHISTEV) (cleaved yes); made in house; host or cells: E. coli
Description: as §1, §2, §3

[6] = biological target: T6, Streptococcus pneumoniae NanA sialidase CBM (SpCBM, SEQ ID NO: 4) variant Im23 Y292E (Streptococcus pneumoniae, UniProt P62575, Y292E); assay: as above; design: key to Biacore (binding affinity to sialyllactose): Green: green indicates that the variant closely resembles its WT counterpart for that particular characteristic; Green’: pale green (green’) or yellow indicate increasing degrees of differences; Yellow: pale green (green’) or yellow indicate increasing degrees of differences; Orange: Red or orange indicate significant differences; Red or orange indicate significant differences
T6 construct: SpCBM, residues 121-305 of S. pneumoniae NanA sialidase; 6His (pHISTEV) (cleaved yes); made in house; host or cells: E. coli
Description: as §1, §2, §3

[7] = biological target: T7, Sp2CBMTD (SpOrig, SEQ ID NO: 7) variant HEX17 A162P/V239A/V246G/S342D/R403K, SEQ ID NO: 9 (Streptococcus pneumoniae, UniProt P62575, A162P/V239A/V246G); assay: Biacore characterization of hexameric Sp2CBMTD variants; assay type: binding, Streptococcus pneumoniae (CBM); Pseudomonas aeruginosa (TD); design: key: Green: green indicates that the variant closely resembles its WT counterpart for that particular characteristic; Green’: pale green (green’) or yellow indicate increasing degrees of differences; Yellow: pale green (green’) or yellow indicate increasing degrees of differences; Orange: Red or orange indicate significant differences; Red or orange indicate significant differences; conditions: qualitative colour code vs WT hexamer
T7 construct: PDB 2w38); trimerises; pHISTEV 6His, E. coli
Description: as §3

[8] = biological target: T8, Sp2CBMTD (SpOrig, SEQ ID NO: 7) variant HEX6 V239A/V246G/S342D/R403K, SEQ ID NO: 8 (Streptococcus pneumoniae, UniProt P62575, V239A/V246G); assay: as above; assay type: binding, Streptococcus pneumoniae (CBM); Pseudomonas aeruginosa (TD); design: key: Green: green indicates that the variant closely resembles its WT counterpart for that particular characteristic; Green’: pale green (green’) or yellow indicate increasing degrees of differences; Yellow: pale green (green’) or yellow indicate increasing degrees of differences; Orange: Red or orange indicate significant differences; Red or orange indicate significant differences; conditions: qualitative colour code vs WT hexamer
T8 construct: trimerises; pHISTEV 6His, E. coli
Description: as §3

## CC(=O)N[C@H]1[C@H]([C@H](O)[C@H](O)CO)O[C@@](O[C@H]2[C@@H](O)[C@@H](CO)O[C@@H](O[C@H]3[C@H](O)[C@@H](O)C(O)O[C@@H]3CO)[C@@H]2O)(C(=O)O)C[C@@H]1O (stereo partly drawn) [sialyllactose]
[1]
  Biacore (binding affinity to sialyllactose): Green
[2]
  Biacore (binding affinity to sialyllactose): Green
[3]
  Biacore (binding affinity to sialyllactose): Green
[4]
  Biacore (binding affinity to sialyllactose): Green
[5]
  Biacore (binding affinity to sialyllactose): Green
[6]; in words, compared with WT
  ligand affinity: reduced ligand affinity
[6]; qualitative colour code vs WT
  Biacore (binding affinity to sialyllactose): Yellow
[7]
  Biacore: Green
[8]
  Biacore: Green
